Key:
[1] = Rate of dissolution in H2O at 25° C. of rebaudioside A polymorph and amorphous forms; format: physicochemical
[2] = format: physicochemical
Description: A solution of rebaudioside A (>97% pure by HPLC) was prepared in double distilled water (12.5 gm in 50 mL, 25% concentration) by stirring the mixture at 40° C. for 5 minutes. An amorphous form of rebaudioside A was formed by immediately using the clear solution for spray drying with the Lab-Plant spray drier SD-04 instrument (Lab-Plant Ltd., West Yorkshire, U.K.). The solution was fed through the feed pump into the nozzle atomizer which atomized it into a spray of droplets with the help of a constant flow of nitrogen/air. […] This dry powder (11-12 g, H2O 6.74%) was discharged continuously from the drying chamber and was collected in a bottle.

Structure (SMILES)	Rate of dissolution in H2O at 25° C. (in words) [1]	Rate of dissolution in H2O at 25° C. ([1]; per 5 minutes)	Rate of dissolution in H2O at 25° C. ([1]; per 60 minutes)	solubility in water at room temperature [2]
C=C1C[C@@]23CC[C@H]4[C@@](C)(CCC[C@@]4(C)C(=O)O[C@@H]4O[C@H](CO)[C@@H](O)[C@H](O)[C@H]4O)[C@@H]2CC[C@]1(O[C@@H]1O[C@H](CO)[C@@H](O)[C@H](O[C@@H]2O[C@H](CO)[C@@H](O)[C@H](O)[C@H]2O)[C@H]1O[C@@H]1O[C@H](CO)[C@@H](O)[C@H](O)[C@H]1O)C3 [Form 3, rebaudioside A]	High	(>30%/5 %/5 minutes		
C=C1C[C@@]23CC[C@H]4[C@@](C)(CCC[C@@]4(C)C(=O)O[C@@H]4O[C@H](CO)[C@@H](O)[C@H](O)[C@H]4O)[C@@H]2CC[C@]1(O[C@@H]1O[C@H](CO)[C@@H](O)[C@H](O[C@@H]2O[C@H](CO)[C@@H](O)[C@H](O)[C@H]2O)[C@H]1O[C@@H]1O[C@H](CO)[C@@H](O)[C@H](O)[C@H]1O)C3 [Form 1, rebaudioside A]	Very low		(<0.2%/60 %/60 minutes	
C=C1C[C@@]23CC[C@H]4[C@@](C)(CCC[C@@]4(C)C(=O)O[C@@H]4O[C@H](CO)[C@@H](O)[C@H](O)[C@H]4O)[C@@H]2CC[C@]1(O[C@@H]1O[C@H](CO)[C@@H](O)[C@H](O[C@@H]2O[C@H](CO)[C@@H](O)[C@H](O)[C@H]2O)[C@H]1O[C@@H]1O[C@H](CO)[C@@H](O)[C@H](O)[C@H]1O)C3 [Form 2, rebaudioside A]	Intermediate	(<30%/5 %/5 minutes		
C=C1C[C@@]23CC[C@H]4[C@@](C)(CCC[C@@]4(C)C(=O)O[C@@H]4O[C@H](CO)[C@@H](O)[C@H](O)[C@H]4O)[C@@H]2CC[C@]1(O[C@@H]1O[C@H](CO)[C@@H](O)[C@H](O[C@@H]2O[C@H](CO)[C@@H](O)[C@H](O)[C@H]2O)[C@H]1O[C@@H]1O[C@H](CO)[C@@H](O)[C@H](O)[C@H]1O)C3 [Form 4, rebaudioside A]	High	(>35.0%/5 %/5 minutes		> 35.0%
